Test results: US5998438A, “5-cyclo indole compounds” (Allelix Biopharmaceuticals, Inc., priority 1997, dated 1999)
Where two headings read alike, the source gives them in different places.

Molecular target: T1, 5-HT1D-like receptor (Oryctolagus cuniculus, UniProt P49144)
T1 construct: Ring segments of the vein (4-5 mm in length) were cut and the endothelium gently removed; from tissue; host or cells: saphenous vein rings (endothelium removed) of male New Zealand White rabbits
Assay: Agonist assay: contraction of rabbit isolated saphenous vein (5-HT1D-like receptor agonist activity)
Set-up: species or system rabbit (male New Zealand White)

[1] = rabbit isolated saphenous vein ring segments, concentration causing 50% of the maximum contraction effected by the compound, with prazosin, idazoxan and indomethacin, 37° C., pH 7.4, read-out: EC50

T1 sequence (P49144 whole entry): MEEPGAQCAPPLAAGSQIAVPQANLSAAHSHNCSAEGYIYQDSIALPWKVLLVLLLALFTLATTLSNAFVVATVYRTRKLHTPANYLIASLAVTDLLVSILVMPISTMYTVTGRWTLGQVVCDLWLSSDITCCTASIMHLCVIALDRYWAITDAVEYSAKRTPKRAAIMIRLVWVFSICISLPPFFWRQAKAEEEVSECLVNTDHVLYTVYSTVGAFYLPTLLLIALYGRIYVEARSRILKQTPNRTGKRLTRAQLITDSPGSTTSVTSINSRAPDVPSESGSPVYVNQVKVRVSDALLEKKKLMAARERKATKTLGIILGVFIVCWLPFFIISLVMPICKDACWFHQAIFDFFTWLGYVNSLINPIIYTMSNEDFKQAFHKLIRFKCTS

CN(C)CCc1c[nH]c2ccc(C3=CCCCC3)cc12 [Example 9a, 5-(Cyclohex-1-en-1-yl)-3-[2-(N,N-dimethylamino)ethyl]-1H-indole]
EC50: 960 nM

CN(C)CCc1c[nH]c2ccc(C3CCCCO3)cc12 (centres unmarked) [Example 9b, 3-[2-(N,N-Dimethylamino)ethyl]-5-(tetrahydropyran-2-yl)-1H-indole]
EC50: 160 nM

C1=C(c2ccc3[nH]cc(CCN4CCCC4)c3c2)CCN(Cc2ccccc2)C1 [Example 15, 5-(1-Aza-1-benzylcyclohex-3-en-4-yl)-3-(2-pyrrolidinylethyl)-1H-indole]
EC50 [1]: 220 nM

CN(C)CCc1c[nH]c2ccc(C3CCCCC3)cc12 [Example 17a, 5-Cyclohexyl-3-[2-(N,N-dimethylamino)ethyl]-1H-indole]
EC50: 250 nM

CN1CCC[C@H]1Cc1c[nH]c2ccc(C3CCN(C(=O)OC(C)(C)C)CC3)cc12 [Example 17d, (S)-5-(1-Aza-1-tert-butoxycarbonylcyclohex-4-yl)-3-[(N-methylpyrrolidin-2-yl)methyl]-1H-indole]
EC50 [1]: 750 nM
